Values quoted from earlier work in patent US20120251478A1, “Method for treatment of a glomerular disease comprising administration of anion exchange resin” (priority 2006, published 2012).

System: apparent albuminuria
Conditions: reports, nonpatent reference 2

## COc1ccc(Cl)cc1C(=O)NCCc1ccc(S(=O)(=O)NC(=O)NC2CCCCC2)cc1 [glibenclamide]
  apparent albuminuria: not ameliorated
